From ChEMBL document CHEMBL4665911, “Novel Arginase Inhibitors for Treating Cancer and Respiratory Inflammatory Diseases” (ACS Med Chem Lett, 2020)

Molecular target: T1, Arginase-1 (Homo sapiens, UniProt P05089)
T1 sequence (P05089 whole entry): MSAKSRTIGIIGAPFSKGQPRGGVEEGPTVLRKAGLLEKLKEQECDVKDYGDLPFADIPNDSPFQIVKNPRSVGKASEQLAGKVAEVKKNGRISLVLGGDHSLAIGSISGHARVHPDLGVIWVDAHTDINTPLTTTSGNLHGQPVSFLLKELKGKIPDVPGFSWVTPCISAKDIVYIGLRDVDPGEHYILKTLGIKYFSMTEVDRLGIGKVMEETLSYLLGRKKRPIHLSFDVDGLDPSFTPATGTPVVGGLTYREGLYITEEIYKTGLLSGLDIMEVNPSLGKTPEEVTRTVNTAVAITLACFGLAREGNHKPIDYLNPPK
Experiment: Inhibition of human recombinant arginase 1 expressed in Escherichia coli using thioarginine by Ellman's assay

IC50: 30 nM
SMILES: N[C@H]1CCN[C@@](CCCCB(O)O)(C(=O)O)C1
